Data taken from US5220042A, “1,4-benzoquinone derivatives and benzene derivatives, and process for preparing the same” (priority 1984, dated 1993).
Where two headings read alike, the source gives them in different places.

Test system: SRS-A release from lung fragments
Assay: Inhibition of SRS-A release from sensitized guinea pig lung fragments
Assay type: cell-based, guinea pig (Hartley strain)
Conditions: Cavia porcellus
Description: Inhibitory activities on the release of SRS-A and histamine of the present compounds were determined.
A male guinea pig (Hartley strain) (body weight: about 300 g) was sensitized by a method according to P. Anderson: "Int. Archs. Allergey appln. Immunol., Vol. 64, pages 249-258 (1981). Thus, 30 mg/kg of cyclophosphamide was intraperitoneally administered to the guinea pig, and 2 days after 1 microgram of ovalbumin (manufactured by Sigma Chemical Co., St. Louis, Mo. U. S. A.) together with 10 mg of aluminium hydroxide gel were intraperitoneally administered so as to have the animal sesitized.
50 Days after the sesitization, the animal was killed by exsanguination, and the lung was isolated from the animal and was perfused with 20 ml of Tyrode's solution, then immersed in an ice-cooled Tyrode's solution. The parenchyma of the lung was cut by using McIlwain-type tissue chopper to make it into fragments of lung having 2 mm square and the fragments were washed with Tyrode's solution. 400 Milligrams of sectiles of lung were suspended in 3.6 ml of Tyrode's solution, and this suspension was preincubated at 37° C. for 5 minutes, then 4 microliters of dimethyl sulfoxide solution of the test compound, in the case of control 4 microliters of dimethyl sulfoxide alone was added to the suspension. 5 Minutes after, 0.4 ml of 100 micrograms/ml of ovalbumin solution added so as to release SRS-A for 10 minutes. The suspension was ice-cooled and filtered through gauze, the filtrate was centrifuged at 2,000 rpm for 10 minutes and the supernatant was collected. The supernatant was stored in freezed state at -80° C. until bio-assay was conducted.
Amounts of SRS-A and histamine contained in the supernatant were determined by bio-assay using ileum of guinea pig.
A piece of the ileum (2-3 cm of length) positioned from 15-25 cm from the opening portion of ileocecum was isolated from a male guinea pig (Hartley strain) (body weight: 400-600 g) which was fasted for 24 hours. The piece of ileum was hanged vertically in a Magnus tube which was filled with 10 ml of Tyrode's solution containing 10^-7 M of atropine sulfate under air stream conditions. The isotonic contraction of the piece of the ileum was measured at 0.5 g of load by using an isotonic transducer "TD-112S" (manufactured by Nihon Koden Co., Ltd.). The measurements were carried out after the reaction to histamine of the piece of ileum was kept constant. Bioassay of histamine was measured by using the value of contraction shown in 30 seconds after the addition of the supernatant. Bioassay of on SRS-A was measured by using the value of contraction shown at 2 minutes after the addition of the supernatant in the presence of 10^-6 M of pyrilamine (manufactured by Sigma Chemical Co.), and compared with the standard curve of crude SRS-A released from the fragments of the lung.

[1] = Table 2, dose 3 μM, read-out: Inhibition ratio (%) SRS-A
[2] = Table 2, dose 30 μM, read-out: Inhibition ratio (%) SRS-A
[3] = Table 2B, 3 μM, read-out: Inhibitory activities on SRS-A (%)
[4] = Table 2B, 30 μM, read-out: Inhibitory activities on SRS-A (%)
[5] = Table 2B, read-out: Inhibitory activities on SRS-A (%)

SMILES | inhibition at 3 µM [1] [%] | inhibition at 30 µM [2] [%] | inhibition at 3 µM [3] [%] | inhibition at 30 µM [4] [%] | inhibition at 1 µM [5] [%] | inhibition at 10 µM [5] [%]
COC1=CC(=O)C(OC)=C(CCCCCCCC#CCCCCCCCC2=C(OC)C(=O)C=C(OC)C2=O)C1=O [Test Compound No. 20, 2,2'-(8-Hexadecynylene)bis(3,6-dimethoxy-1,4-benzoquinone)] | 14.5 | 24.1 | 14.5 | 24.1 |  | 
COC1=CC(=O)C(OC)=C(CCCCCCCCCC#CCCCCCCCCCC2=C(OC)C(=O)C=C(OC)C2=O)C1=O [Test Compound No. 21, 2,2'-(10-Eicosynylene)bis(3,6-dimethoxy-1,4-benzoquinone)] | -21.7 | 16.6 | -21.7 | 16.6 |  | 
COC1=CC(=O)C(OC)=C(CCC2=C(OC)C(=O)C=C(OC)C2=O)C1=O [Test Compound No. 23, 2,2'-Ethylenebis(3,6-dimethoxy-1,4-benzoquinone)] |  |  |  | 28.6 |  | 
COC1=CC(=O)C(OC)=C(CCCCC2=C(OC)C(=O)C=C(OC)C2=O)C1=O [Test Compound No. 24, 2,2'-Tetramethylenebis(3,6-dimethoxy-1,4-benzoquinone)] |  |  |  |  | 36.1 | 67.7
COC1=CC(=O)C(OC)=C(CCCOCCC2=C(OC)C(=O)C=C(OC)C2=O)C1=O [Test Compound No. 25, 2-(3,6-Dimethoxy-1,4-benzoquinon-2-yl)ethyl 3-(3,6-dimethoxy-1,4-benzoquinon-2-yl)propyl ether] |  |  |  |  | 52.4 | 94.4
COC1=CC(=O)C(OC)=C(COCC2=C(OC)C(=O)C=C(OC)C2=O)C1=O [Test Compound No. 26, Bis[(3,6-Dimethoxy-1,4-benzoquinon-2-yl)methyl] ether] |  |  | 10.9 | 39.8 |  | 
COC1=CC(=O)C(OC)=C(CCCC2=C(OC)C(=O)C=C(OC)C2=O)C1=O [Test Compound No. 27, 2,2'-Trimethylenebis(3,6-dimethoxy-1,4-benzoquinone)] |  |  |  |  | 14.9 | 83.3
COC1=CC(=O)C(OC)=C(CCCSSCCCC2=C(OC)C(=O)C=C(OC)C2=O)C1=O [Test Compound No. 28, Bis[(3,6-dimethoxy-1,4-benzoquinon-2-yl)propyl] disulfide] |  |  |  |  | 30.5 | 85.2
COC1=CC(=O)C(OC)=C(CCCCCSCCCCCC2=C(OC)C(=O)C=C(OC)C2=O)C1=O [Test Compound No. 29, Bis[(3,6-dimethoxy-1,4-benzoquinon-2-yl)-pentyl]sulfide] |  |  |  |  | 19.6 | 60.5
CCCCC#CCCCC1=C(OC)C(=O)C=C(OC)C1=O [Test Compound No. 35, 2,5-Dimethoxy-3-(4-nonynyl)-1,4-benzoquinone] |  |  | 64.9 | 96 |  | 
COCOc1cc(OC)c(OCOC)c(CCCCCc2c(OC)c(OCOC)cc(OC)c2OCOC)c1OC [Test Compound No. 36, 1,5-bis[1,4-Dimethoxy-2,5-bis(methoxymethoxy)-phen-3-yl]pentane] |  |  | 12.1 | 24.5 |  | 
COc1cc(OC(C)=O)c(OC)c(CCCCCc2c(OC)c(OC(C)=O)cc(OC)c2OC(C)=O)c1OC(C)=O [Test Compound No. 37, 1,5-bis[1,4-Diacetoxy-2,5-(dimethoxy)phen-3-yl]-pentane] |  |  | 69.2 | 90 |  | 
CCCCC1=C(OC)C(=O)C(CCCCCC2=C(OC)C(=O)C=C(OC)C2=O)=C(OC)C1=O [Test Compound No. 38, 3-Butyl-2,5-dimethoxy-6-[5-(2,5-dimethoxy-1,4-benzoquinon-3-yl)pentyl]-1,4-benzoquinone] |  |  |  |  | 25.1 | 38.2
CCCCC#CCCCC1=C(OC)C(=O)C(CCCCCC2=C(OC)C(=O)C=C(OC)C2=O)=C(OC)C1=O [Test Compound No. 39, 2,5 Dimethoxy-3-(4-nonynyl)-6-[5-(2,5-dimethoxy-1,4-benzoquinon-3-yl)pentyl]-1,4-benzoquinone] |  |  |  |  | 0 | 11
COC1=CC(=O)C(OC)=C(CCCCCC2=C(OC)C(=O)C(CCO)=C(OC)C2=O)C1=O [Test Compound No. 40, 2,5-Dimethoxy-3-(2-hydroxyethyl)-6-[5-(2,5-dimethoxy-1,4-benzoquinon-3-yl)pentyl]-1,4-benzoquinone] |  |  |  |  | 38.2 | 91.7
COC1=CC(=O)C(OC)=C(CCCCCC2=C(OC)C(=O)C(CCCCCC3=C(OC)C(=O)C=C(OC)C3=O)=C(OC)C2=O)C1=O [Test Compound No. 41, 2,5-Dimethoxy-3,6-bis[5-(2,5-dimethoxy-1,4-benzoquinon-3-yl)-entyl]-1,4-benzoquinone] |  |  |  |  | 4.1 | 25
COC1=CC(=O)C(OC)=C(OCCCOC2=C(OC)C(=O)C=C(OC)C2=O)C1=O [Test Compound No. 42, 2,2'-Trimethylenedioxybis(3,6-dimethoxy-1,4-benzoquinone)] |  |  |  |  | 28.4 | 80
COC1=CC(=O)C(OC)=C(CCCCCC2=C(OC)C(=O)C(SC)=C(OC)C2=O)C1=O [Test Compound No. 43, 1-(2,5-Dimethoxy-1,4-benzoquinon-3-yl)-5-(2,5-dimethoxy-3-methylthio-1,4-benzoquinon-6-yl)pentane] |  |  |  |  | 23.2 | 79.4
CCOC(=O)C1=C(OC)C(=O)C(CCCCCC2=C(OC)C(=O)C=C(OC)C2=O)=C(OC)C1=O [Test Compound No. 44, 1-(2,5-Dimethoxy-1,4-benzoquinon-3-yl)-5-(2,5-dimethoxy-3-ethoxycarbonyl-1,4-benzoquinon-6-yl)pentane] |  |  |  |  | -10.5 | 18.6
COC1=C(CCCCCC2=C(OC)C(=O)C(SC)=C(OC)C2=O)C(=O)C(OC)=C(SC)C1=O [Test Compound No. 45, 2,2'-Pentamethylenebis(3,6-dimethoxy-5-methylthio-1,4-benzoquinone)] |  |  |  |  | 28.1 | 50.7
CCOC(=O)C1=C(OC)C(=O)C(CCCCCC2=C(OC)C(=O)C(C(=O)OCC)=C(OC)C2=O)=C(OC)C1=O [Test Compound No. 46, 2,2'-Pentamethylenebis(3,6-dimethoxy-5-ethoxycarbonyl-1,4-benzoquinone)] |  |  |  |  | 18.2 | 16.2
CCCCC1=C(OC)C(=O)C(CCCCCC2=C(OC)C(=O)C(CCO)=C(OC)C2=O)=C(OC)C1=O [Test Compound No. 47, 1-(2,5-Dimethoxy-3-butyl-1,4-benzoquinon-6-yl)-[2,5-dimethoxy-3-(2-hydroxyethyl)-1,4-benzoquinon-6-yl]pentane] |  |  |  |  | 15.8 | 47.6
COC1=C(CCO)C(=O)C(OC)=C(CCCCCC2=C(OC)C(=O)C(OC)=C(OC)C2=O)C1=O [Test Compound No. 48, 1-(2,3,5-Trimethoxy-1,4-benzoquinon-6-yl)-5-[2,5-dimethoxy-3-(2-hydroxyethyl)-1,4-benzoquinon-6-yl]pentane] |  |  |  |  | 37.6 | 89.4
COC1=C(CCO)C(=O)C(OC)=C(CCCCCC2=C(OC)C(=O)C(SC)=C(OC)C2=O)C1=O [Test Compound No. 49, 1-(2,5-Dimethoxy-3-methylthio-1,4-benzoquinon-6-yl)-5-[2,5-dimethoxy-3-(2-hydroxyethyl)-1,4-benzoquinon-6-yl]pentane] |  |  |  |  | -0.4 | 65.2
CCOC(=O)C1=C(OC)C(=O)C(CCCCCC2=C(OC)C(=O)C(CCO)=C(OC)C2=O)=C(OC)C1=O [Test Compound No. 50, 1-(2,5-Dimethoxy-3-ethoxycarbonyl-1,4-benzoquinon-6-yl)-5-[2,5-dimethoxy-3-(2-hydroxyethyl)-1,4-benzoquinon-6-yl]pentane] |  |  |  |  | 14.8 | 41.7
COC1=CC(=O)C(O)=C(CCCCCC2=C(O)C(=O)C=C(OC)C2=O)C1=O [Test Compound No. 51, 2,2'-Pentamethylenebis(3-hydroxy-6-methoxy-1,4-benzoquinone)] |  |  |  |  | 11.8 | 60.8
